Source: patent publication US9422296B2, “Fast-dissociating dopamine 2 receptor antagonists” (Janssen Pharmaceutica NV, priority 2007, dated 2016)
Like-named read-outs stand apart in the source and are kept apart here.

Legend:
[1] = molecular target: T1, human Dopamine D3 receptor (Homo sapiens, UniProt P35462); test: In vitro binding affinity for human D3 receptor ([125I]iodosulpride)
T1 construct: expressed in transfected cells; host or cells: CHO cells (membranes)
Protocol: In Vitro Binding Affinity for Human D3 Receptor
Frozen membranes of human Dopamine D3 receptor-transfected CHO cells were thawed, briefly homogenized using an Ultra-Turrax T25 homogeniser and diluted in 50 mM Tris-HCl assay buffer containing 120 mM NaCl, 2 mM CaCl2, 1 mM MgCl2, 5 mM KCl and 0.1% BSA (adjusted to pH 7.4 with HCl) to an appropriate protein concentration optimized for specific and non-specific binding. Radioligand [^125I]Iodosulpride (Amersham, specific activity ˜2000 Ci/mmol) was diluted in assay buffer at a concentration of 2 nM. Prepared radioligand (20 μl), along with 40 μl of either the 10% DMSO control, Risperidone (10^−6M final concentration), or compound of interest, was then incubated with 70 μl of the prepared membrane solution and 70 μl of WGA coated PVT beads (0.25 mg/well final concentration). After shaking for 24 hours at RT plates were counted in a Topcount™ scintillation counter. Percentage specific binding and competition binding curves were calculated using S-Plus software (Insightful).

human D2L receptor = molecular target: T2, human D2L receptor (Homo sapiens, UniProt P14416); test: Fast dissociation: indirect assay of rate of dissociation from D2 receptor ([3H]spiperone binding after pre-incubation with compound); details: [3H]spiperone binding as % of total binding capacity after 5 min on filter; compound pre-incubated at 4 times its IC50; >50% = faster than clozapine
T2 construct: expressed in transfected cells
Protocol: Compounds were first screened for their D2 affinity in a binding assay using [^3H]spiperone and human D2L receptor cell membranes.
Compounds at a concentration of 4 times their IC50 were first incubated for one hour with human D2L receptor cell membranes in a volume of 2 ml at 25° C., then filtered over glass-fibre filter under suction using a 40 well multividor Immediately after, the vacuum was released. 0.4 ml of pre-warmed buffer (25° C.) containing 1 nM [^3H]spiperone was added on the filter for 5 minutes. The incubation was stopped by initiating the vacuum and immediate rinsing with 2×5 ml of ice-cold buffer. The filter-bound radioactivity was measured in a liquid scintillation spectrometer. The principle of the assay is based on the assumption that the faster a compound dissociates from the D2 receptor, the faster [^3H]spiperone binds to the D2 receptor.

[2] = molecular target: T3, human Dopamine D2L receptor (Homo sapiens, UniProt P14416); test: In vitro binding affinity for human D2L receptor ([3H]spiperone); details: membranes of human D2L receptor-transfected CHO cells, read-out: D2L binding pIC50 (converted)
T3 construct: expressed in transfected cells; host or cells: CHO cells (membranes)
Excerpt: In order to find antipsychotic compounds active against positive and negative symptoms and cognitive impairment, and having an improved safety profile (low EPS incidence and no metabolic disorders), we have screened for compounds selectively interacting with the dopamine D2 receptor and dissociating fast from this receptor, and further having affinity for the dopamine D3 receptor as well as the serotonin 5-HT-6 receptor. Compounds were first screened for their D2 affinity in a binding assay using [^3H]spiperone and human D2L receptor cell membranes.
Pharmacology In Vitro Binding Affinity for Human D2L Receptor
Frozen membranes of human Dopamine D2L receptor-transfected CHO cells were thawed, briefly homogenised using an Ultra-Turrax T25 homogeniser and diluted in Tris-HCl assay buffer containing NaCl, CaCl2, MgCl2, KCl (50, 120, 2, 1, and 5 mM respectively, adjusted to pH 7.7 with HCl) to an appropriate protein concentration optimised for specific and non-specific binding. Radioligand [^3H]Spiperone (NEN, specific activity ˜70 Ci/mmol) was diluted in assay buffer at a concentration of 2 nmol/L. Prepared radioligand (50 μl), along with 50 μl of either the 10% DMSO control, Butaclamol (10^−6 mol/1 final concentration), or compound of interest, was then incubated (30 min, 37° C.) with 400 μl of the prepared membrane solution. Membrane-bound activity was filtered through a Packard Filtermate harvester onto GF/B Unifilterplates and washed with ice-cold Tris-HCl buffer (50 mM; pH 7.7; 6×0.5 ml). Filters were allowed to dry before adding scintillation fluid and counting in a Topcount scintillation counter. Percentage specific bound and competition binding curves were calculated using S-Plus software (Insightful).

[3] = molecular target: T4, human Serotonin 5HT6 receptor (Homo sapiens, UniProt P50406); test: In vitro binding affinity for human 5HT6 receptor ([3H]lysergic acid diethylamide); details: [3H]LSD, membranes of human 5HT6 receptor-transfected HEK cells; read-out: 5-HT6 binding pIC50 (converted)
T4 construct: expressed in transfected cells; host or cells: HEK cells (membranes)
Protocol: In Vitro Binding Affinity for Human 5HT6 Receptor
Frozen membranes of human Serotonin 5HT6 receptor-transfected HEK cells were thawed, briefly homogenized using an Ultra-Turrax T25 homogeniser and diluted in 50 mM Tris-HCl assay buffer containing 10 mM MgCl2, 1 mM EDTA and 10 μM Pargyline (adjusted to pH 7.4 with HCl) to an appropriate protein concentration optimized for specific and non-specific binding. Radioligand [^3H]Lysergic acid diethylamide (Perkin Elmer, specific activity ˜80 Ci/mmol) was diluted in assay buffer at a concentration of 20 nM. Radioligand (20 μl), along with 40 μl of either the 10% DMSO control, Methiothepine (10^−5 M final concentration), or compound of interest, was then incubated with 70 μl of the prepared membrane solution and 70 μl of WGA coated PVT beads (0.25 mg/well final concentration). After shaking for 24 hours at RT plates were counted in a Topcount™ scintillation counter. Percentage specific binding and competition binding curves were calculated using S-Plus software (Insightful).

[4] = test system: subchronic PCP-induced attentional set shifting; test: Reversal of subchronic PCP-induced attentional set shifting in rats; assay type: in vivo
Excerpt: Compound E1 was further found to be active in the ‘Reversal of subchronic PCP-induced attentional set shifting in rats’ test (J. S. Rodefer et al., Neurospychopharmacology (2007), 1-10).

[5] = [125I]iodosulpride, membranes of human D3 receptor-transfected CHO cells, read-out: D3 binding pIC50 (converted)

T3 sequence (P14416 whole entry): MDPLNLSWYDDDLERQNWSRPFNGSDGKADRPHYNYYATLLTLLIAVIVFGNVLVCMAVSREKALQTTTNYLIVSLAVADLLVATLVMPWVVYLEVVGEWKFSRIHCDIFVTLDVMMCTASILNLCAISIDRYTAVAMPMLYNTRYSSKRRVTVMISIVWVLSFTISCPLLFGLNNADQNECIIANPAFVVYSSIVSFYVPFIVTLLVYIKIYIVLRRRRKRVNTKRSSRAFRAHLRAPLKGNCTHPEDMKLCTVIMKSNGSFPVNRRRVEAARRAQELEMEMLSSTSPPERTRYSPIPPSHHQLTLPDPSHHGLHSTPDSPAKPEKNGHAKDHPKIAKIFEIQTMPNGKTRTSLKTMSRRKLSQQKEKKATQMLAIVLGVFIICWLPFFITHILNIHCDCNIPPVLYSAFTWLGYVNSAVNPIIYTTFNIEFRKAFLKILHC
T2 sequence (P14416 whole entry): as above
T1 sequence (P35462 whole entry): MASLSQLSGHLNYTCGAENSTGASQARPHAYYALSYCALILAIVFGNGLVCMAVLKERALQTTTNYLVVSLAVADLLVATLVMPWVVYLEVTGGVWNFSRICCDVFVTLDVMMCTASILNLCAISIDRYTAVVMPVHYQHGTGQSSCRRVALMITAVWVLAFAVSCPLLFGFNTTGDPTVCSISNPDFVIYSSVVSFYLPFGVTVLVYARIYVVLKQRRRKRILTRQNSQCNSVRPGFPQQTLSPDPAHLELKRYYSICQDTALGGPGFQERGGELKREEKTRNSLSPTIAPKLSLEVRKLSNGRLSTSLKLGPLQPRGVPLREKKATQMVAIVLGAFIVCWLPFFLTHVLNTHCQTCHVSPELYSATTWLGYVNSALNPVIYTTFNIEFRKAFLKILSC
T4 sequence (P50406 whole entry): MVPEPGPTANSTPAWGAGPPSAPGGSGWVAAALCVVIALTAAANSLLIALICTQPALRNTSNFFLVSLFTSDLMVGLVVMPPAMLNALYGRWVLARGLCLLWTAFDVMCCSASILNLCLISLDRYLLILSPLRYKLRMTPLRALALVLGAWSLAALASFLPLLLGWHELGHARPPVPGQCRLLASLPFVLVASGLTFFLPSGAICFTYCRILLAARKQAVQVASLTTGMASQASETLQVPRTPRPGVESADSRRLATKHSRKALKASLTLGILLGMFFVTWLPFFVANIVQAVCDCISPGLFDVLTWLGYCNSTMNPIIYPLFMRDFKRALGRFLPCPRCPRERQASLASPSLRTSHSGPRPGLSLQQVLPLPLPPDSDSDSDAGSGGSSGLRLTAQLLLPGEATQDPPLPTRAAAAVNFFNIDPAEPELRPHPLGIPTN

Compound | IC50 [1, 5] [µM] | D2 dissociation (human D2L receptor) [%] | IC50 [2] [µM] | IC50 [3] [µM] | IC50 [1] [µM] | melting point [°C] | activity in reversal of subchronic PCP-induced attentional set shifting [4]
CCN1CCN(c2cc(-c3ccccc3)c(C(F)(F)F)nn2)CC1 [Example E2, 6-(4-Ethylpiperazin-1-yl)-4-phenyl-3-trifluoromethyl-pyridazine] | 0.0251 | 80.5 | 0.204 | 3.16 |  |  | 
Fc1ccc(-c2cc(N3CCNCC3)nnc2C(F)(F)F)cc1 [Example E6, 4-(4-Fluorophenyl)-6-piperazin-1-yl-3-trifluoromethyl-pyridazine] |  | 55 | 0.372 | 0.214 | 0.0363 | 137.4 | 
FC(F)(F)c1nnc(N2CCNCC2)cc1-c1ccccc1 [Example E1, 4-Phenyl-6-piperazin-1-yl-3-trifluoromethyl-pyridazine] | 0.0661 | 75 | 1.1 | 0.589 |  | 130.7 | active
N#Cc1nnc(N2CCNCC2)cc1-c1ccccc1 [Example E10, 4-Phenyl-6-piperazin-1-yl-pyridazine-3-carbonitrile] | > 10 | 86 | 5.62 | 4.57 |  | 271.6 | 
FC(F)(F)c1nnc(N2CCNCC2)cc1-c1ccsc1 [Example E7, 6-Piperazin-1-yl-4-thiophen-3-yl-3-trifluoromethyl-pyridazine] | > 10 | 81 | 0.871 | 1.55 |  | 244.3 | 
FC(F)(F)c1nnc(N2CCN3CCCC3C2)cc1-c1ccccc1 (racemic) [Example E5, 2-(5-Phenyl-6-trifluoromethyl-pyridazin-3-yl)-octahydro-pyrrolo[1,2-a]pyrazine] | > 10 | 84 | 1.26 | 1.02 |  |  | 
Cc1ccccc1-c1cc(N2CCNCC2)nnc1C(F)(F)F [Example E8, 6-Piperazin-1-yl-4-o-tolyl-3-trifluoromethyl-pyridazine] | > 10 | 78.5 | 1 | 0.263 |  |  | 
Fc1ccc(-c2ccc(-c3cc(N4CCNCC4)nnc3C(F)(F)F)cc2)cc1 [Example E9, 4-(4′-Fluorobiphenyl-4-yl)-6-piperazin-1-yl-3-trifluoromethyl-pyridazine] | 0.0479 | 48 | 0.794 | 1.82 |  | 161.9 | 
FC(F)(F)c1nnc(N2CCNCC2)cc1-c1ccc(-c2ccccc2)cc1 [Example E35] | 0.107 |  | 2.69 | 1.51 |  | 199.1 | 
FC(F)(F)c1nnc(N2CCNCC2)cc1-c1ccc(Cl)cc1 [Example E12] | 0.347 |  | 3.63 | 1.74 |  | 198.2 | 
